Assays:
[1] = system: BT474; assay: BT474 orthotopic xenograft tumor growth; format: in vivo, female SCID Beige mice; conditions: BT474 (predicted sensitive) in mammary fat pad; 10 mg/kg ip q2d; treatment stopped Day 30
Procedure: (§1) BT474 cells (ATCC, Manassas, VA, cat #HTB-20) were implanted orthotopically (2×10^6 per mouse) as a mixture in Matrigel (50%) into the mammary fat pad of female SCID Beige mice (10 mice per treatment arm) and grown to a volume of about 125 mm^3 prior to compound administration. CT-110 was dosed alone at 10 mg/kg ip, once every two days (ip, q2d) in 1% (weight/volume) sodium carboxymethyl cellulose/0.5% (volume/volume) Tween-80. A control group received vehicle alone (1% (weight/volume) sodium carboxymethyl cellulose/0.5% (volume/volume) Tween-80ip q2d). All drug treatment was stopped on Day 30. The major endpoint is to assess whether the tumor growth can be delayed or mice can be cured. Tumor sizes are measured twice weekly in two dimensions using a caliper, and the volume is expressed in mm^3 using the formula: V=0.5 a×b^2 where a and b are the long and short diameters of the tumor, respectively. The tumor sizes are then used for the calculations of both T-C and T/C values. T-C is calculated with T as the median time (in days) required for the treatment group tumors to reach a predetermined size (e.g., 1,000 mm^3), and C is the median time (in days) for the control group tumors to reach the same size. The T/C value (in percent) is an indication of antitumor effectiveness, T and C are the mean volume of the treated and control groups, respectively, on a given day.

[2] = system: MDAMB231; assay: MDAMB231 orthotopic xenograft tumor growth; format: in vivo, female SCID Beige mice; conditions: MDAMB231 (predicted resistant) in mammary fat pad; 10 mg/kg ip q2d; treatment stopped Day 20
Procedure: as §1, with “MDAMB231” for “BT474”, “#HTB-26)” for “#HTB-20)”, “75” for “125”, “20.” for “30.”

[3] = system: RPMI-8226; assay: NCI-60 single-dose in vitro growth inhibition assay; format: cell-based, human; conditions: single-dose 10 μM
Procedure: (§2) As in FIG. 1, Compound CT-110 was used in single-dose (10 μM) in vitro growth inhibition assays of the NCI-60 cell lines. The NCI-60 panel contains 60 diverse human cancer cell lines screened with more than 100,000 chemical compounds for anticancer activity since 1990 by the Developmental Therapeutics Program (DTP). See Huang, et al., 2005, Pharmacogenomics J. 5:381-99; Staunton, et al., 2001, PNAS USA 98(19):10787-92; Covell, et al., 2007, Mol. Cancer Ther. 6:2261-70; Potti, et al., 2006. Nat. Med. 12(11):1294-300. Standardization of NCI-60 inhibition data into Z-scores. NCI-60 cell line percent growth data obtained after culture in the presence of CT-110 were converted to percent growth inhibition by the formula 100−% Growth. A Z-score for each cell line data point was calculated using the formula (X-value minus 60-element array average)/(Array standard deviation). Z-scores are associated with a normal distribution and are used (1) to indicate where a score lies relative to the entire data set, above or below the mean, and (2) to compare scores derived from different normal distributions. Narrowing the 25K+ CellMiner genes to a CT-110 inhibition signature set of 6 genes. Pattern comparison searching yielded a list of 1,080 genes having significant Pearson correlations (r>0.334 or r<−0.334) to the NCI-60 Z-score profile of CT-110. Cross-referencing this profile-matching list with 1,106 cancer-relevant genes comprising a 755-gene PanCancer and Custom Codeset, supplemented with 545 “Cancer Driver” genes (Integrative OncoGenomics, BROAD Institute TARGET Database v3, Targeted Therapies for Cancer), reduced the number of genes to fifty (50). NCI-60-based Z-score profiles for these 50 genes were obtained using the CellMiner “Cell Line Signature Analysis” query. […] Z-scores, reflective of gene expression level and directionality, were used to identify forty-five (45) genes out of the […] (Table 3) that had expression either up or down in at least 4 out of the 5 CT-110-sensitive or resistant cell lines (assessed independently). […] These six genes (CDH1, CREB3L4, PIK3C2B, RNF43, SREBF1 and ZMYM2) are the end result of the rational approach to establish a focused set of genes, with expression profiles reflecting the growth inhibition profile of CT-110 in sensitive and resistant cancer cell lines.

[4] = system: UACC-257; assay: as above; format: cell-based, human; conditions: single-dose 10 μM
Procedure: as §2

[5] = system: OVCAR-8; assay: as above; format: cell-based, human; conditions: single-dose 10 μM
Procedure: as §2

[6] = system: SK-MEL-2; assay: as above; format: cell-based, human; conditions: single-dose 10 μM
Procedure: as §2

[7] = system: COLO205; assay: as above; format: cell-based, human; conditions: single-dose 10 μM
Procedure: as §2

[8] = system: HT29; assay: as above; format: cell-based, human; conditions: single-dose 10 μM
Procedure: as §2

[9] = system: SK-MEL-5; assay: as above; format: cell-based, human; conditions: single-dose 10 μM
Procedure: as §2

[10] = system: OVCAR-3; assay: as above; format: cell-based, human; conditions: single-dose 10 μM
Procedure: as §2

[11] = system: SK-MEL-28; assay: as above; format: cell-based, human; conditions: single-dose 10 μM
Procedure: as §2

[12] = system: MCF7; assay: as above; format: cell-based, human; conditions: single-dose 10 μM
Procedure: as §2

N=C(NCCCOc1ccc(F)cc1)Nc1ccc(Cl)cc1 [CT-110, 1-(3-(4-fluorophenoxy)propyl)-3-(4-chlorophenyl)guanidine]
tumor growth T/C [1]: 70% | tumor growth T/C [2]: < 10% | sensitivity to Sigma1 inhibition by CT-110 (growth inhibition rank in NCI-60) [3]: most resistant | sensitivity to Sigma1 inhibition by CT-110 (growth inhibition rank in NCI-60) [4]: most sensitive | sensitivity to Sigma1 inhibition by CT-110 (growth inhibition rank in NCI-60) [5]: most resistant | sensitivity to Sigma1 inhibition by CT-110 (growth inhibition rank in NCI-60) [6]: most resistant | sensitivity to Sigma1 inhibition by CT-110 (growth inhibition rank in NCI-60) [7]: most sensitive | sensitivity to Sigma1 inhibition by CT-110 (growth inhibition rank in NCI-60) [8]: most sensitive | sensitivity to Sigma1 inhibition by CT-110 (growth inhibition rank in NCI-60) [9]: most sensitive | sensitivity to Sigma1 inhibition by CT-110 (growth inhibition rank in NCI-60) [10]: most resistant | sensitivity to Sigma1 inhibition by CT-110 (growth inhibition rank in NCI-60) [11]: most resistant | sensitivity to Sigma1 inhibition by CT-110 (growth inhibition rank in NCI-60) [12]: most sensitive
